Legend:
factor Xa = factor Xa (Homo sapiens (Human), UniProt P00742); experiment: Determination of the factor Xa-inhibitory activity in plasma samples (RVV-activated factor X, chromogenic substrate); assay type: biochemical; conditions: factor Xa inhibition in citrate plasma (Octapharma), RVV-stimulated, ChromozymX substrate
Description: a.4) Determination of the Factor Xa-Inhibitory Activity of the Potential Inhibitors in Plasma Samples
To determine the inhibition of factor Xa in plasma samples, the factor X present in plasma is activated by a protease from rattlesnake toxin. The factor Xa activity or its inhibition by potential inhibitors is then measured by addition of a chromogenic substrate.
Various concentrations of the substances to be tested are dissolved in dimethyl sulphoxide and mixed with an aqueous refludan solution (10 μg/ml). In clear 96-well plates having a flat bottom, 30 μl of citrate plasma (Octapharma) are mixed with 10 μl of the substance dilution. Then, either 20 μl of a solution of a rattlesnake toxin (Russel viper venom (RVV); RVV reagent: Pentapharm 121-06, final concentration 0.6 mU) in an aqueous calcium chloride solution buffer (final concentration of calcium chloride 0.05 M) or 20 μl of the aqueous calcium chloride solution (final concentration of calcium chloride 0.05 M) without RVV reagent (as reference for an unstimulated sample) are added. After addition of 20 μl of ChromozymX substrate (final concentration 1.6 mmol/l, Bachem L-1565, diluted in water) the samples are measured in a SpectraFluor Reader using a measurement filter of 405 nm each minute over a period of 20 minutes. The IC50 value is determined when about 70% of the maximum signal is reached (about 12 min).

thrombin = thrombin (Homo sapiens (Human), UniProt P00734); experiment: Determination of the thrombin-inhibitory activity in plasma samples (ecarin, fluorogenic thrombin substrate); assay type: biochemical; conditions: thrombin inhibition in citrate plasma (Octapharma), ecarin-stimulated
Description: a.5) Determination of the Thrombin-Inhibitory Activity of the Potential Inhibitors in Plasma Samples
Various concentrations of the substances to be tested are dissolved in dimethyl sulphoxide and diluted with water. In white 96-well plates having a flat bottom, 20 μl of substance dilution are mixed with 20 μl of ecarin solution (ecarin reagent, from Sigma E-0504, final concentration 20 mU per batch) in Ca buffer (200 mM Hepes+560 mM sodium chloride+10 mM calcium chloride+0.4% PEG) or with 20 μl of Ca buffer (as unstimulated control). Furthermore, 20 μl of fluorogenic thrombin substrate (from Bachem I-1120, final concentration 50 μmol/l) and 20 μl of citrate plasma (from Octapharma) are added and homogenized thoroughly. The plate is measured in a SpectraFluorplus Reader using an excitation filter of 360 nm and an emission filter of 465 nm each minute over a period of 20 minutes. The IC50 value is determined when about 70% of the maximum signal is reached (about 12 min).

Sequence of factor Xa (P00742 whole entry, looked up): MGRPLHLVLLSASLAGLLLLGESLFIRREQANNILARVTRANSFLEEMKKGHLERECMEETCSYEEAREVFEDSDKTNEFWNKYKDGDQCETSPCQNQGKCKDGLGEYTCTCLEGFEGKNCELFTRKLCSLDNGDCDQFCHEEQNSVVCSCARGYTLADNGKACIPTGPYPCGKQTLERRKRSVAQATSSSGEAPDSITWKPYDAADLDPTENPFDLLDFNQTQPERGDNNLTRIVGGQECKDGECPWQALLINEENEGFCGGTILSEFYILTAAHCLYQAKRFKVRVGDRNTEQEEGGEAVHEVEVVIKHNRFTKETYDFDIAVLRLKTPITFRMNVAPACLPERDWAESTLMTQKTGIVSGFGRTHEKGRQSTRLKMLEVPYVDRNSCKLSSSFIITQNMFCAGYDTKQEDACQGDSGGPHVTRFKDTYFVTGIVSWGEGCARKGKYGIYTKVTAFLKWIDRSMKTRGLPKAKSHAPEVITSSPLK
Sequence of factor Xa (P00742 whole entry, looked up): as above

Cc1cc(N2C[C@H](CNC(=O)c3ccc(Cl)s3)OC2=O)ccc1-n1cccc(CO)c1=O [Example 2, 5-Chloro-N-[((5S)-3-{4-[3-(hydroxymethyl)-2-oxopyridin-1(2H)-yl]-3-methylphenyl}-2-oxo-1,3-oxazolidin-5-yl)methyl]thiophene-2-carboxamide]
IC50 (factor Xa): 21 nM
IC50 (thrombin): 198 nM

Cc1cc(N2C[C@H](CNC(=O)c3ccc(Cl)s3)OC2=O)ccc1-n1cccc(CCO)c1=O [Example 6, 5-Chloro-N-[((5S)-3-{4-[3-(2-hydroxyethyl)-2-oxopyridin-1(2H)-yl]-3-methylphenyl}-2-oxo-1,3-oxazolidin-5-yl)methyl]thiophene-2-carboxamide]
IC50 (factor Xa): 70 nM
IC50 (thrombin): 186 nM

COCc1cc(N2C[C@H](CNC(=O)c3ccc(Cl)s3)OC2=O)ccc1-n1cccc(CCO)c1=O [Example 8]
IC50 (factor Xa): 167 nM
IC50 (thrombin): 16 nM

Cc1cc(N2C[C@H](CNC(=O)c3ccc(Cl)s3)OC2=O)ccc1-n1cccc(CCCO)c1=O [Example 10, 5-Chloro-N-{[(5S)-3-{4-[3-(3-hydroxypropyl)-2-oxopyridin-1(2H)-yl]-3-methylphenyl}-2-oxo-1,3-oxazolidin-5-yl]methyl}thiophene-2-carboxamide]
IC50 (factor Xa): 40 nM
IC50 (thrombin): 74 nM

From patent publication US8487111B2, “Substituted oxazolidinones and their use” (Bayer Intellectual Property GmbH, priority 2007, dated 2013)
